Measurements from patent US6673812B1, “Preventives/remedies for glaucoma” (Senju Pharmaceutical Co., Ltd., priority 1998, dated 2004).

Tested on: Japanese white rabbits
Test: Effect on normal intraocular pressure of white rabbits
Format: in vivo, rabbit
Conditions: 20 μl eye drop, 0.1% or 0.03%
Excerpt: In this experiment, 0.1% eye drop and 0.03% eye drop containing Compound A (each prepared in Example 2 and Example 3), 0.03% eye drop containing Compound B (prepared in Example 4), 0.1% eye drop and 0.03% eye drop containing Compound C (each prepared in Example 5 and Example 6) and 0.03% eye drop containing Compound D (prepared in Example 7) were used.
Japanese white rabbits (body weight about 2 kg) purchased from Japan Laboratory Animals, INC. were used. These animals were bred in a breeding chamber set to temperature 23±3° C., humidity 55±10% and fed on limited amount of 100 g a day of a solid feed (Labo R Stock, Nihon-Nosan Kogyo K.K.). They were allowed free access to tap water. The rabbits were placed in a holding box for 5 hr a day for acclimation from 2 days prior to the test. […] After measurement of the initial value of the intraocular pressure, various eye drops (20 μl) were instilled into one eye, and a base, which was one of various eye drops except the test drug, was instilled into the other eye in the same manner and taken as the control eye.
The intraocular pressure was measured with time at 30, 60, 90, 120, 150 and 180 min after instillation and thereafter at one hour intervals until the intraocular pressure returned to the initial value, and the duration of the effect was examined.

With `C[C@@H](N)c1ccc(C(=O)Nc2ccnc3[nH]ccc23)cc1.Cl.Cl.O` [Compound D, (R)-(+)-N-(1H-pyrrolo[2,3-b]pyridin-4-yl)-4-(1-aminoethyl)benzamide 2HCl 1H2O] the “character (onset, duration) of intraocular pressure lowering effect” value was “marked and long lasting intraocular pressure lowering effect”.
